{
  "source": "patent US10897891B2",
  "about": "“Compositions and methods for prolonged cell storage” (Board of Regents, The University of Texas System, priority 2015, dated 2021)",
  "assay_type_in_all_cases": "cell-based, human",
  "key": {"[1]": {"test_system": "platelets", "experiment": "Cholesterol membrane capping with the fluorescent cholesterol probe filipin (Experiment F)", "settings": "5° C. overnight", "method": "(Note 1: Stock solutions were prepared in DMSO that was rigorously dried with an equal volume of A-3 molecular sieve that had been regenerated at 300° C. overnight. The resultant filipin stock 25 mg/ml DMSO solution was prepared in a nitrogen atmosphere and frozen at −70° C. to limit water induced hydrolysis.)\nApproximately 3 ml of residual pooled platelets were obtained after 72 hr at standard storage conditions. 100 ul of platelets were mixed with 100 ul of fresh filipin (300 ug/ml in PBS+10%, DMSO) in each of 12 wells of a 24 well cluster plate and incubated at room temperature for 35 min. (DMSO was included to assist with membrane loading of the highly insoluble filipin molecule.) All wells were then diluted by adding 2.5 ml of PBS and incubated another 15 min to dilute unbound filipin and allow removal of DMSO by dilution. The plate was next centrifuged at 2500 g for 20 min in a pre-warmed centrifuge at 22° C. All wells were gently aspirated and the PBS was replaced with 3 ml of control or test platelets as follows:\nAll wells were next incubated 20 min at room temperature to allow DMSO to equilibrate. (Note: the final DMSO concentration in the Control wells or the PEG-400 only wells would be 6 parts in 10,000 or 0.06%.) Next the plate was held at 5° C. overnight and in the morning centrifuged in a 5° C. equilibrated centrifuge at 2,500 g for 20 min. Cold 4% Formalin/PBS was carefully added and the plate returned to 5° C. for overnight incubation. At 18 hr the plate was allowed to fix again at room temperature in the dark for 4 hours. Subsequently the formalin was aspirated and the plate washed with 4 changes of 2 ml of PBS. Finally, excess fluid was removed and the wells were photographed with an inverted fluorescent microscope. Note 2: Filipin is rapidly photo-bleached with the UV, thus the light intensity was lowered with a barrier filter of ˜20% was used. This filter setting was used consistently for all photographs. All photographs were taken under the same camera conditions. No post photographic image alterations were made. […]"}, "[2]": {"test_system": "platelets", "experiment": "Hydrogen peroxide induced platelet aggregation (platelet 'aging', Experiment B)", "settings": "2% PEG-400 in PBS, 1 hr room temperature", "method": "Platelet aggregation using epinephrine. Ten ml of 24 hr old platelet residual was derived from one platelet unit and split into two 5 ml aliquots in 50 ml tubes. One sample received 10% phosphate buffered saline (PBS) and one 10% PBS containing PEG400 such that the final PEG concentration was 2%. These samples were placed on a flat-bed rotator with a 1 inch stroke, at 70 cycles per min, at 5° C. for 7 days. 100 ul of these platelet suspensions were added to wells of a 96 well U bottom plate. Epinephrine 0.1 mg/ml (Pharmaceutical NDC 0409-4921-34-44-048-DK) was diluted with PBS and 100 ul was added to test wells to give a finial concentration of 10 mcg/ml. The plate was rotated overnight to allow aggregation. The extent of aggregation was read using an ELISA plate reader (Molecular Devises, Vmax) at 690 nm wavelength. Platelets, with and without PEG, were also aggregated by the addition of 10% H2O2. Hydrogen peroxide is not an agonist for the platelet receptor; however exposure to hydrogen peroxide mimics the platelet storage lesion though membrane ageing. In this study, the inventors tested 2 day old residual platelets form one donor unit by splitting the material in to a 24 well cluster plate. […] Table 3 presents additional cryoprotective agents scored for the effect on microscopic degranulation (20× high contrast lighting as above). […]"}, "[3]": {"test_system": "platelets", "experiment": "Epinephrine induced platelet aggregation following cold storage (OD 690 nm, Experiment C)", "settings": "2% PEG-400, 5° C. for 7 days", "method": "Platelet aggregation using epinephrine. Ten ml of 24 hr old platelet residual was derived from one platelet unit and split into two 5 ml aliquots in 50 ml tubes. One sample received 10% phosphate buffered saline (PBS) and one 10% PBS containing PEG400 such that the final PEG concentration was 2%. These samples were placed on a flat-bed rotator with a 1 inch stroke, at 70 cycles per min, at 5° C. for 7 days. 100 ul of these platelet suspensions were added to wells of a 96 well U bottom plate. Epinephrine 0.1 mg/ml (Pharmaceutical NDC 0409-4921-34-44-048-DK) was diluted with PBS and 100 ul was added to test wells to give a finial concentration of 10 mcg/ml. The plate was rotated overnight to allow aggregation. The extent of aggregation was read using an ELISA plate reader (Molecular Devises, Vmax) at 690 nm wavelength. Platelets, with and without PEG, were also aggregated by the addition of 10% H2O2. […] Table 3 presents additional cryoprotective agents scored for the effect on microscopic degranulation (20× high contrast lighting as above).\nFresh donor platelets were supplemented with PBS or PBS 2% PEG-400 as described in the methods, and incubated at 5° C. for 7 days. These control and test samples were then loaded side by side on a 96 well plate (ensuring that test and control reading would be made simultaneously). […]"}},
  "note": "“Also recorded” adds a separate entry of the source.",
  "data": [
    {"substance": "Polyethylene glycol [PEG-400]", "values": [
      {"measurement": "filipin clustering / cholesterol capping vs PBS control", "setting": "[1]; 2% PEG-400 in PBS", "result": "less filipin clustering; also recorded: less cholesterol capping"},
      {"measurement": "filipin clustering / cholesterol capping vs PBS control", "setting": "[1]; 4% PEG-400 in PBS", "result": "less cholesterol capping"},
      {"measurement": "filipin clustering / cholesterol capping vs PBS control", "setting": "[1]; 4% PEG-400 in PBS, listed as PEG", "result": "less filipin clustering"},
      {"measurement": "platelet aggregation after 10% hydrogen peroxide vs PBS control", "setting": "[2]", "result": "less aggregation of the platelets"},
      {"measurement": "initial aggregation in the stored state (baseline OD 690 nm, no epinephrine)", "setting": "[3]", "result": "less initial aggregation in the stored state"},
      {"measurement": "aggregation response to epinephrine challenge (OD 690 nm)", "setting": "[3]; 0 vs 10 μg epinephrine", "result": "significant aggregation response to epinephrine"}
    ]}
  ]
}
